Experiment [1] concerns mutp53 in SK3 cell extract. The experiment can be described thus: ELISA of mutp53 conformation, SK3.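 Note: 0 means no effect and 6 means as or more effective than positive control.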 In kind it is biochemical, human. The following applies: score 0-6 compared to positive control. From the text: A total of close to 350 peptides, deduced from the phage sequences, were synthesized and subjected to several alternative complementary methods of semi high-throughput functional screening; we refer to these peptides as pCAPs (p53 conformation activating peptides). First, we used cell-free ELISA assays to evaluate the effect of individual peptides on mutp53 conformation and DNA binding in vitro. For conformation analysis (Figure 2A), microtiter plates were coated with PAb240, PAb1620 or PAb421 as control, then the effect of each peptide on reactivity of mutp53 with these antibodies was examined; WTp53 served as a positive control for PAb1620 reactivity.
96-well plates were coated using 3 different anti p53 monoclonal antibodies, PAb421, PAb240 and PAb1620. Wells were incubated overnight (ON) with 100μl Ab (5μg/ml) in room temp (RT). The liquid was discarded, and the wells were washed 3 times with PBS, 200 μl. Next, blocking with 5% BSA in PBS for 2 hours (RT) was performed, followed by 3 washes in PBS. Samples of mutant and WT p53 proteins (100 μl, 10 μg/ml), together with control peptides or with test peptides 1-326 (5μg /ml), were incubated for 1.5 hours, and then added to the wells for1 hour at RT. 4 washes with PBST were performed. Next, HRP conjugated αp53 antibody (10μg/ml HAF1355 (R&D)) were added to the wells and incubated at RT for 1 hour. Plates were washed 3 times in PBST and TMB substrate solution (50μl each well, Thermo, (Cat. No. ES001-1L-K)) was added and incubated at 37°C for 20 min. The reaction was stopped with 2M Sulfuric acid (50μl). The absorbance was measured at 450 nm with a spectrophotometer. Protein concentration was determined by dividing the absorb an each sample to by the absorbance of PAb421 samples.
In general terms: In an ELISA, binding on a coated surface is turned into a signal by an enzyme label.

A further experiment has as its system mutp53^R175H. The experiment is described as follows: ELISA of mutp53 DNA binding (p53RE oligonucleotide), H1299-p53^R175H cell extract.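 For DNA H1299: 0 means no effect and 6 means as or more effective than positive control.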 Particulars: for DNA H1299: score 0-6 compared to positive control, mutp53 DNA binding; for binding of mutp53 to the p53RE: H1299-p53^R175H extract, Figure 2B. Format: biochemical, human. The protocol:
Cell extracts were added to ELISA plates coated with the indicated antibodies to allow mutp53 to react with the peptides and antibodies. αp53-HRP Ab was used for assessment of p53 levels. Numbers represent ratio of absorbance between the PAb1620 and PAb240 samples. All reads were normalized to the control […] reading of each extract. MCF7 (WTp53) and H1299-mutp53^A135V (tsp53) cells were used as positive controls for the WTp53 conformation (1620/240 ratio equals or exceeds 5:1). […] 96 well plates were coated with anti-p53 antibody, cell extracts containing p53 were reacted with oligonucleotides that contain a p53RE consensus binding site, labeled with biotin, in the presence or absence (NT) of test peptides. Streptavidin-HRP is used to quantify the amount of oligos in the well. TMB assay was performed to determine bound mutp53 levels (450nm). MCF7 and the H1299-mutp53^A135V(TS) cells serve as positive controls for WTp53. C.and D. - Bar graphs illustrating the effect of various selected peptides on mut-p53 dependent expression on cell viability. […] D, ES2 cells expressing endogenous mutp53 (blue bars) and ES2 cells knocked out for p53 by CRISPR construct (light blue bars). Cell lines were treated with selected peptides, Cis-platinum was used as positive control for cell death. 48 hours after treatment, cells were washed with PBS, and the remaining attached cells were stained with Crystal violet and washed 4 times with PBS. Stained cells were dissolved in 10% acetic acid and plates were taken for optical density measurement at […]. TEXT PRINTED IN THE PICTURE: (A) pCAP1: 0.87 | (A) pCAP2: 0.53 | (A) pCAP3: 0.59 | (A) pCAP4: 0.59 | (A) pCAP5: 0.60 | (A) pCAP6: 0.75 | (A) pCAP23: 1.06 | (A) pCAP24: 1.44 | (A) pCAP36: 1.25 | (A) pCAP47: 1.54 | (A) pCAP54: 1.54 | (A) pCAP60: 2.73 | (A) pCAP68: 2.22 | (A) pCAP83: 1.56 | (A) pCAP97: 2.45 DOUBTS OF THE COPYIST ABOUT THIS PICTURE: Panel A: the numbers over the bars are printed very small, rotated and blurred, so 3, 5, 6, 8 and 9 cannot be told apart with certainty. All values are best readings: pCAP1 0.87, pCAP2 0.53, pCAP3 0.59, pCAP4 0.59, pCAP5 0.60, pCAP6 0.75, pCAP23 1.06, pCAP24 1.44, pCAP36 1.25, pCAP47 1.54, pCAP54 1.54, pCAP60 2.73, pCAP68 2.22, pCAP83 1.56, pCAP97 2.45 / Panel A: the picture prints no measure with the numbers over the bars, so they are given as bare numbers / Panel A: numbers are also printed over the controls, which are not substances and are left out of lines. Best readings: NT 0.60, 60° 30'' 0.48, 60° 1' 0.37, 60° 3' 0.13, 60° 10' 0.05, MCF7 3.32, H1299TS 3.25
Next, we assessed the ability of our selected peptides to restore sequence-specific DNA binding to mutp53. To that end we employed an ELISA kit (R&D) in which cell extracts containing p53 are reacted with a biotinylated p53RE oligonucleotide and then incubated in wells coated with anti-p53 antibody, which is expected to trap the p53 protein and its associated p53RE DNA. The amount of p53RE retained in each well via p53 binding is quantified by incubation with streptavidin-HRP. […] Again, extracts of MCF7 and H1299-tsp53^A135V cells served as positive controls for WTp53 DNA binding activity. […] Importantly, there was substantial overlap between the peptides that stabilized the WT conformation (Figure 2A) and those that increased specific DNA binding (Figure 2B), further reinforcing the conclusion that those peptides stabilize mutp53 in a functional state. This was not seen with the randomly selected peptides 1-6 (black bars).
For these experiments, a commercial p53/DNA binding kit of “R&D” (Cat-DYC1355-5 Lot-1273366FA) was used, in accordance with manufacturer guide lines. Briefly, 96 well plates we coated with anti-p53 antibody overnight. Cell extracts containing p53 are reacted with an oligonucleotide that contains a p53 consensus binding site (provided in the kit), labeled with Biotin, in the presence or absence (NT) of test peptides. […]

As to HHPWTHHQRWS [pCAP-20], the “Conform SK3” value in experiment [1] was found to be 4. Regarding HSSHHHPVHSWN [pCAP-83], the “DNA H1299” value with mutp53^R175H is 5. The “Conform SK3” value in experiment [1] is recorded as 2.

As to IRGRIIR [pCAP-54], in the experiment with mutp53^R175H, the “binding of mutp53 to the p53RE” value is “marked increase” and the “DNA H1299” value amounted to 2.

“IRGRIIRRRRRRRRR [pCAP-54R, pCAP-54 with poly arginine tail]”: the “DNA H1299” value in the experiment with mutp53^R175H was 2. On the same count and under the same terms, with IRILMFLIGCGR [pCAP-23] the figure was 1. Still for that read-out and setting: the figure for “IRILMFLIGCGRRRRRRRRR [pCAP-23R, pCAP-23 with poly arginine tail]” is 3; for LHSKTLVL [pCAP-17] it is 3. For LRCLLLLIGRVG [pCAP-24], in the experiment with mutp53^R175H, the “DNA H1299” value is recorded as 3. Besides, in experiment [1], the “Conform SK3” value was found to be 2. Regarding “LRCLLLLIGRVGRRRRRRRR [pCAP-24R, pCAP-24 with poly arginine tail]”, in the experiment on mutp53^R175H, the “DNA H1299” value amounted to 3. The “Conform SK3” value in experiment [1] is 2. On to SFILFIRRGRLG [pCAP-60], for which, in the experiment on mutp53^R175H, the “binding of mutp53 to the p53RE” value is “marked increase” and the “DNA H1299” value is recorded as 3. For the same substance, the “Conform SK3” value in experiment [1] amounted to 2. Turning to “SFILFIRRGRLGRRRRRRRRR [pCAP-60R, pCAP-60 with poly arginine tail]”, the “DNA H1299” value in the experiment on mutp53^R175H came out at 3. For the same substance, in experiment [1], the “Conform SK3” value is on record as 3. WNHHHSTPHPAH [pCAP-97]: in the experiment on mutp53^R175H, the “binding of mutp53 to the p53RE” value is on record as “marked increase” and the “DNA H1299” value is 4. For the same substance, in experiment [1], the “Conform SK3” value turned out to be 3. On to “WNHHHSTPHPAHRRRRRR [pCAP-97R, pCAP-97 with poly arginine tail]”, for which the “DNA H1299” value in the experiment with mutp53^R175H was 4. For the same substance, in experiment [1], the “Conform SK3” value amounted to 3. On the same counts, the results for YPTQGHLR [pCAP-36] are 2 and 3. Take YRRLLIGMMWRRRRRRRRR [pCAP-68]: in the experiment with mutp53^R175H, the “binding of mutp53 to the p53RE” value is on record as “marked increase” and the “DNA H1299” value is given as 3. Besides, the “Conform SK3” value in experiment [1] stood at 5. “myr-PRVLPSPHTIHPSQYP [pCAP-229, myristoylated peptide, similarity to HIPK2]”: the “DNA H1299” value with mutp53^R175H was 4. Moreover, the “Conform SK3” value in experiment [1] worked out at 2. The like results for myr-RRIRDPRILLLHFD [pCAP-325] were, in that order, 4 and 3. The like results for myr-RRKHNKHRPEPDSDER [pCAP-221] were, in that order, 2 and 3.

With “myr-RRKILFIRLMHNKH [pCAP-227, myristoylated peptide, similarity to GAS2]”, the “DNA H1299” value in the experiment on mutp53^R175H is 3. Moreover, the “Conform SK3” value in experiment [1] amounted to 1. As to myr-RRLIVRILKLPNPPER [pCAP-242], the “DNA H1299” value in the experiment on mutp53^R175H worked out at 4.

These data come from PMC4914250, “Cancer therapeutic approach based on conformational stabilization of mutant p53 protein by small peptides” (Oncotarget, 2016).
